Format in all cases: cell-based
One assay concerns the target T1, human NE transporter (Homo sapiens, UniProt P23975).
T1 construct: expressed in transfected cells; host or cells: MDCK cells
Description: Inhibition of [3H]NE uptake in cells expressing the recombinant human NE transporter. The note with it: MDCK cells expressing the NE transporter; for inhibition at 1 µM: 1 μM compound, read-out: Uptake inh. % at 1 μM NE. Here is the method: (§1) The ability of the 1-heteroaryl-3-azabicyclo[3.1.0.]hexane of the invention for inhibiting transport of norepinephrine (NE) and/or dopamine (DA) and/or serotonin (5-HT) were evaluated using cell lines (such as the HEK 293 cell line) that stably express recombinant human NE, DA, and 5-HT transporters, respectively. The techniques for stably transfecting mammalian cell lines with neurotransmitter transporters and measuring the effects of drugs on amine uptake have been described in the literature (e.g., Gu, H., et al. J. Biol. Chem. 269:7124-7130, 1994; Eshleman A J, J Pharmacol Exp Ther 289:877-885, 1999) and well known to those skilled in the art.
(§2) A basic technique for measuring the ability of a compound to inhibit [^3H]NE, DA, and 5-HT uptake in cell lines recombinantly expressing human transporters has been described (Eshleman, et al., 1999). In brief, cell suspensions (HEK 293 cells expressing the 5-HT transporter; MDCK cells expressing the NE transporter, and CHO-K1 cells expressing the DA transporter, respectively) can be prepared for assay by removing the medium from cells grown on tissue culture dishes, then washing the plates with buffered medium. Cells can then be gently scraped from the plates and cell clusters separated by trituration with a pipette for 5-10 aspiration/ejection cycles. To these cell suspensions were added test drugs (final concentrations generally from 0.01-5 μM) and Tris/Hepes buffer, pH 7.1 (also containing 120 mM NaCl, 1.2 mM CaICl2, 1.2 mM MgSO4, 5 mM D-glucose, and 1 mM ascorbic acid). Following a preincubation of the isolated cells at 25° C., either [^3H]DA, [^3H]5-HT, or [^3H]NE was added and the incubation continued an additional 10 minutes. Radiolabelled neurotransmitter uptake was terminated by vacuum filtration and washing through Whatman glass fiber filters (GF/C), and the radioactivity retained on the filters was measured by liquid scintillation spectrometry. Specific uptake was defined as the difference in uptake observed in the absence and presence of a large molar excess of nomifensine, desipramine, or fluoxetine (for [^3H]DA, [^3H]NE or [^3H]5-HT, respectively].
(§3) The results of these assays are shown in Table 2, below, which indicates, for each of the exemplary compounds, the structure of the substituent, and levels of observed uptake inhibition percentage for each of the indicated neurotransmitters at a fixed concentration of compound, or the IC50 value, defined as that concentration of compound necessary to inhibit uptake by 50%. These are standard terms known to those skilled in the art.

A further assay addresses T2, human DA transporter (Homo sapiens, UniProt Q01959).
T2 construct: expressed in transfected cells; host or cells: CHO-K1 cells
Put plainly: Inhibition of [3H]DA uptake in cells expressing the recombinant human DA transporter. The note with it: CHO-K1 cells expressing the DA transporter; for inhibition at 1 µM: 1 μM compound, read-out: Uptake inh. % at 1 μM DA. Here is the method: as §1, §2, §3

A further assay concerns the target T3, human 5-HT transporter (Homo sapiens, UniProt P31645).
T3 construct: expressed in transfected cells; host or cells: HEK 293 cells
Put plainly: Inhibition of [3H]5-HT uptake in cells expressing the recombinant human 5-HT transporter. The settings on record: HEK 293 cells expressing the 5-HT transporter; for inhibition at 1 µM: HEK293, 1 μM compound, read-out: Uptake inh. % at 1 μM 5-HT. Here is the method:
as §1, §2, §3

The term IC50 denotes the point on the concentration scale where inhibition reaches its midpoint.

T2 sequence (Q01959 whole entry): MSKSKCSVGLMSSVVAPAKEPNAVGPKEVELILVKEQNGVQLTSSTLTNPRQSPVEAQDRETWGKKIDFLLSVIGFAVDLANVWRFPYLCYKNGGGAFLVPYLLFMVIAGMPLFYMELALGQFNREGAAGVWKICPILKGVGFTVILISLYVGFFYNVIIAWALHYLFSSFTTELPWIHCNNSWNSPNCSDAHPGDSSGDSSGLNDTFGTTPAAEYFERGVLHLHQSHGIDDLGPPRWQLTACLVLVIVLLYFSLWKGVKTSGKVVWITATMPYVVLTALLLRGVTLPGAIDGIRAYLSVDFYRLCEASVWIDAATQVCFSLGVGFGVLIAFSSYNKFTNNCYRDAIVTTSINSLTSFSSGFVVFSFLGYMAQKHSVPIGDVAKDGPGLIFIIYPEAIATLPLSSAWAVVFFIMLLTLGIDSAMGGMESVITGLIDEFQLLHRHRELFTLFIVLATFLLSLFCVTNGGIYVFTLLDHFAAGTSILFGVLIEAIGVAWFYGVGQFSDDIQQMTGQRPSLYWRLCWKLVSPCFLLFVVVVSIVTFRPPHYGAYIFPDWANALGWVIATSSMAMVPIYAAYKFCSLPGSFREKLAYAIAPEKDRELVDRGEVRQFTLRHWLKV
T1 sequence (P23975 whole entry): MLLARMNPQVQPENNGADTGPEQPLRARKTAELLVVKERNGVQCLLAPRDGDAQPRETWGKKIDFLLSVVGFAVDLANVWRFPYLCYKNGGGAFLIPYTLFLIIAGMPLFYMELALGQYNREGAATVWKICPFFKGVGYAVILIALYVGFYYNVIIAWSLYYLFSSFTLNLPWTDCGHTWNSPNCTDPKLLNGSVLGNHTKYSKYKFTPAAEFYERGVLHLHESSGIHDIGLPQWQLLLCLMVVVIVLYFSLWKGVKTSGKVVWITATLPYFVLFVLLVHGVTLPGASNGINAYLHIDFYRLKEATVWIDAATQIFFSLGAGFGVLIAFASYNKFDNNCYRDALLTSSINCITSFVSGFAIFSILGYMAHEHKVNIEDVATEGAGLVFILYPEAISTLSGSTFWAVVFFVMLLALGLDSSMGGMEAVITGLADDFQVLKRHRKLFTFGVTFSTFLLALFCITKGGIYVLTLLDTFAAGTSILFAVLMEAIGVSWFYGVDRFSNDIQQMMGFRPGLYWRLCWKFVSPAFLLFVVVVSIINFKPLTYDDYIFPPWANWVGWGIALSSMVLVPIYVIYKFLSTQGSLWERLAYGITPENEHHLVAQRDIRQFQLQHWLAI
T3 sequence (P31645 whole entry): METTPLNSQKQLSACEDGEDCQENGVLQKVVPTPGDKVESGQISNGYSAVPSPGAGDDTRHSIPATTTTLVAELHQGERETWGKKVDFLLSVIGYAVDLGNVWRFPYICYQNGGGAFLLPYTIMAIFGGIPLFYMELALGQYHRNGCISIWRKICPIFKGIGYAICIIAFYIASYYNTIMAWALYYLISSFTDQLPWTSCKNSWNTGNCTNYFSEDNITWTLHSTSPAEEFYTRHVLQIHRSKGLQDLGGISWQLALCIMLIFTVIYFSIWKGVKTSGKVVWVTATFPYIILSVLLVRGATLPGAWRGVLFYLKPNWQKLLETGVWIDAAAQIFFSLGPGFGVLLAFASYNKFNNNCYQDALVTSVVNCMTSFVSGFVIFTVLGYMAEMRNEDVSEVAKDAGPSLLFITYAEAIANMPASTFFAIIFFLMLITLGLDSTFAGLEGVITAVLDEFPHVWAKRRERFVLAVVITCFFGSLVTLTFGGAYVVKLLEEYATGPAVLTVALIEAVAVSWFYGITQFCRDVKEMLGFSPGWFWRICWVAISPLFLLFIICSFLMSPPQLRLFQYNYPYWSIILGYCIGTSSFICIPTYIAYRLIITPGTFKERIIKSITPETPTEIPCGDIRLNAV

For the molecule `Clc1ccc2scc(C34CNCC3C4)c2c1` (stereo not drawn), the inhibition at 1 µM is 50% on human NE transporter, 13% at human DA transporter and 18% on human 5-HT transporter.

For the molecule `CC(C)N1CC2CC2(c2cc3ccccc3n2C)C1` (stereo not drawn), the inhibition at 1 µM at human NE transporter was 13%; at human DA transporter it was 7%; on human 5-HT transporter, 83%.

As for `Fc1ccc2cc(C34CNCC3C4)sc2c1` (stereo not drawn), the results for the inhibition at 1 µM on human NE transporter, at human DA transporter and on human 5-HT transporter were 98%, 99% and 100%, respectively.

Take `c1ccc2c(C34CNCC3C4)coc2c1` (stereo not drawn): the inhibition at 1 µM worked out at 77% at human NE transporter, 63% on human DA transporter and 57% at human 5-HT transporter. Besides, the figures for the half-maximal inhibitory concentration (IC50) at human NE transporter, on human DA transporter and on human 5-HT transporter were 82 nM, 770 nM and 188 nM, respectively.

Regarding `CN1C[C@H]2C[C@]2(c2cc3ccccc3s2)C1`, the inhibition at 1 µM on human NE transporter amounted to 75%; at human DA transporter it was 83%; at human 5-HT transporter, 89%. Also, the half-maximal inhibitory concentration (IC50) on human NE transporter was 107 nM; at human DA transporter, 195 nM; at human 5-HT transporter, 263 nM.

As to `Cc1ccc(C23CNCC2C3)s1` (stereo not drawn), the inhibition at 1 µM stood at 59% on human NE transporter, 20% at human DA transporter and 35% at human 5-HT transporter.

As to `CN1CC2CC2(c2cc3cc(F)ccc3s2)C1` (stereo not drawn), the values for the inhibition at 1 µM on human NE transporter, on human DA transporter and at human 5-HT transporter were 70%, 63% and 94%, respectively.

On to `c1cnc2ccc(C34CNCC3C4)cc2c1` (stereo not drawn), for which the inhibition at 1 µM worked out at 68% on human NE transporter, 17% on human DA transporter and 63% on human 5-HT transporter.

As for `CN1CC2CC2(c2ccc3ncccc3c2)C1` (stereo not drawn), the inhibition at 1 µM on human NE transporter came to 13%; on human DA transporter, 12%; at human 5-HT transporter, 93%.

Consider `CN1C[C@H]2C[C@@]2(c2cc3ccccc3s2)C1`, for which the inhibition at 1 µM at human NE transporter amounted to 89%; at human DA transporter, 82%; at human 5-HT transporter, 99%. The half-inhibitory concentration (IC50) was determined as 71 nM at human NE transporter, 224 nM at human DA transporter and 54 nM on human 5-HT transporter.

`CN1CC2CC2(c2cc3ccccc3o2)C1` (stereo not drawn): the values for the IC50 on human NE transporter, at human DA transporter and on human 5-HT transporter were 400 nM, 630 nM and 340 nM, respectively.

Take `c1ccc2ncc(C34CNCC3C4)cc2c1` (stereo not drawn): the figures for the inhibition at 1 µM on human NE transporter, on human DA transporter and on human 5-HT transporter were 64%, 10% and 14%, respectively.

Take `CCN1CC2CC2(c2ccc3c(ccn3C)c2)C1` (stereo not drawn): the inhibition at 1 µM was determined as 39% at human NE transporter, 65% on human DA transporter and 59% at human 5-HT transporter. For the same molecule, the IC50 at human NE transporter came out at 138 nM; on human DA transporter, 215 nM; at human 5-HT transporter, 308 nM.

Regarding `CN1CC2CC2(c2cc3ccc(F)cc3s2)C1` (stereo not drawn), the inhibition at 1 µM at human NE transporter came out at 88%; at human DA transporter, 94%; at human 5-HT transporter, 99%.

In the case of `c1ccc2sc(C34CNCC3C4)nc2c1` (stereo not drawn), the results for the inhibition at 1 µM on human NE transporter, at human DA transporter and at human 5-HT transporter were 72%, 5% and 7%, respectively.

For `CN1CC2CC2(c2csc3ccc(Cl)cc23)C1` (stereo not drawn), the inhibition at 1 µM at human NE transporter turned out to be 39%; at human DA transporter, 1%; on human 5-HT transporter, 50%.

Turning to `c1ccc2sc([C@]34CNC[C@H]3C4)cc2c1`, the inhibition at 1 µM at human NE transporter came to 97%; on human DA transporter, 90%; on human 5-HT transporter it was 96%. Moreover, the IC50 at human NE transporter was determined as 14 nM; at human DA transporter, 52 nM; at human 5-HT transporter, 193 nM.

Take `CN1CC2CC2(c2coc3ccccc23)C1` (stereo not drawn): the inhibition at 1 µM at human NE transporter was 82%; on human DA transporter, 67%; at human 5-HT transporter it was 45%. In addition, the IC50 at human NE transporter was 138 nM; at human DA transporter it was 475 nM; on human 5-HT transporter, 1450 nM.

As for `CN1CC2CC2(c2cc3ccccc3s2)C1` (stereo not drawn), the inhibition at 1 µM came to 71% on human NE transporter, 88% on human DA transporter and 92% at human 5-HT transporter. The half-inhibitory concentration (IC50) turned out to be 60 nM at human NE transporter, 98 nM at human DA transporter and 34 nM at human 5-HT transporter.

As for `CCN1CC2CC2(c2cc3ccccc3n2C)C1` (stereo not drawn), the inhibition at 1 µM on human NE transporter stood at 29%; on human DA transporter, 32%; on human 5-HT transporter it was 65%.

`CN1CC2CC2(c2cc3ccccc3n2C)C1` (stereo not drawn): the figures for the inhibition at 1 µM on human NE transporter, at human DA transporter and at human 5-HT transporter were 35%, 19% and 64%, respectively.

For the molecule `Fc1ccc2sc(C34CNCC3C4)cc2c1` (stereo not drawn), the inhibition at 1 µM was determined as 91% at human NE transporter, 78% at human DA transporter and 98% at human 5-HT transporter.

As to `c1ccc2sc(C34CNCC3C4)cc2c1` (stereo not drawn), the results for the inhibition at 1 µM at human NE transporter, on human DA transporter and at human 5-HT transporter were 90%, 91% and 66%, respectively. In addition, the figures for the IC50 on human NE transporter, on human DA transporter and at human 5-HT transporter were 20 nM, 82 nM and 88 nM, respectively.

In the case of `CN1CC2CC2(c2ccc3c(ccn3C)c2)C1` (stereo not drawn), the values for the inhibition at 1 µM on human NE transporter, at human DA transporter and at human 5-HT transporter were 53%, 45% and 71%, respectively. The half-maximal inhibitory concentration (IC50) at human NE transporter was found to be 186 nM; at human DA transporter it was 811 nM; on human 5-HT transporter, 154 nM.

On to `c1ccc2sc([C@@]34CNC[C@H]3C4)cc2c1`, for which the values for the inhibition at 1 µM on human NE transporter, at human DA transporter and on human 5-HT transporter were 84%, 90% and 76%, respectively. Further, the IC50 at human NE transporter came out at 99 nM; at human DA transporter it was 149 nM; on human 5-HT transporter it was 481 nM.
